ChEMBL document CHEMBL5233279, “d-Mannose binding, aggregation property, and antifungal activity of amide derivatives of pradimicin A” (Bioorg Med Chem, 2021)
Values after ≈ are worked out from the molar mass of the structure shown.

Key:
Diutina rugosa = assay: Antifungal activity against Candida rugosa AJ14513 assessed as inhibition of fungal growth incubated for 48 hrs; format: functional
[1] = Binding affinity to methyl alpha-D-mannopyranoside (unknown origin) in MPOS buffer at pH 7.0 assessed as primary dissociation constant (Kd1) by ITC experiment
[2] = Binding affinity to methyl alpha-D-mannopyranoside (unknown origin) in MPOS buffer at pH 7.0 assessed as secondary dissociation constant (Kd2) by ITC experiment
[3] = Aggregation property of the compound in MPOS buffer at pH 7.0 assessed as compound remaining in supernatant incubated for 15 mins at 37 degreeC followed by 30 mins incubation at room temperature by HPLC based sedimentation assay relative to control; format: physicochemical; set-up: concentration or dose not given beside the values; settings: pH 7, 0.75 h, time 45 min
[4] = Aggregation property of the compound in MPOS buffer at pH 7.0 assessed as compound remaining in supernatant at 1 mM incubated for 15 mins at 37 degreeC followed by 30 mins incubation at room temperature by HPLC based sedimentation assay relative to control; format: physicochemical; settings: pH 7, 0.75 h, 1000 µM, time 45 min
[5] = Binding affinity to D-mannose (unknown origin) in MPOS buffer at pH 7.0 assessed as primary dissociation constant (Kd1) by ITC experiment
[6] = Binding affinity to D-mannose (unknown origin) in MPOS buffer at pH 7.0 assessed as secondary dissociation constant (Kd2) by ITC experiment
[7] = Aggregation property of the compound in MPOS buffer at pH 7.0 incubated for 15 mins at 37 degreeC followed by 30 mins incubation at room temperature by HPLC based sedimentation assay; format: physicochemical; settings: pH 7, 0.75 h, time 45 min

| Structure (SMILES) | MIC (Diutina rugosa) | Kd [1] | Kd [2] | Activity [3] | Activity [4] | Kd [5] | Kd [6] | Activity [7] |
| --- | --- | --- | --- | --- | --- | --- | --- | --- |
| CN[C@@H]1[C@H](O[C@@H]2OC[C@@H](O)[C@H](O)[C@H]2O)[C@@H](O)[C@H](O[C@H]2c3cc(C)c(C(=O)N[C@H](C)C(N)=O)c(O)c3-c3c(cc4c(c3O)C(=O)c3cc(OC)cc(O)c3C4=O)[C@@H]2O)O[C@@H]1C | 16 µg/mL (≈ 19.1 µM) | 220 µM | 5500 µM |  | > 60% |  |  |  |
| CN[C@@H]1[C@H](O[C@@H]2OC[C@@H](O)[C@H](O)[C@H]2O)[C@@H](O)[C@H](O[C@H]2c3cc(C)c(C(=O)N[C@H](C)C(=O)NCCO)c(O)c3-c3c(cc4c(c3O)C(=O)c3cc(OC)cc(O)c3C4=O)[C@@H]2O)O[C@@H]1C | 16 µg/mL (≈ 18.1 µM) |  |  |  |  |  |  |  |
| CN[C@@H]1[C@H](O[C@@H]2OC[C@@H](O)[C@H](O)[C@H]2O)[C@@H](O)[C@H](O[C@H]2c3cc(C)c(C(=O)N[C@H](C)C(=O)NO)c(O)c3-c3c(cc4c(c3O)C(=O)c3cc(OC)cc(O)c3C4=O)[C@@H]2O)O[C@@H]1C | 8 µg/mL (≈ 9.35 µM) | 75 µM | 4300 µM | 65% |  | 100 µM | 5500 µM |  |
| CN[C@@H]1[C@H](O[C@@H]2OC[C@@H](O)[C@H](O)[C@H]2O)[C@@H](O)[C@H](O[C@H]2c3cc(C)c(C(=O)N[C@H](C)C(=O)NN)c(O)c3-c3c(cc4c(c3O)C(=O)c3cc(OC)cc(O)c3C4=O)[C@@H]2O)O[C@@H]1C | 16 µg/mL (≈ 18.7 µM) | 300 µM | 9800 µM | 65% |  |  |  |  |
| CNC(=O)[C@@H](C)NC(=O)c1c(C)cc2c(c1O)-c1c(cc3c(c1O)C(=O)c1cc(OC)cc(O)c1C3=O)[C@H](O)[C@H]2O[C@@H]1O[C@H](C)[C@H](NC)[C@H](O[C@@H]2OC[C@@H](O)[C@H](O)[C@H]2O)[C@H]1O | 16 µg/mL (≈ 18.7 µM) | 860 µM | 6500 µM |  | > 60% |  |  |  |

Now from value to compound:

| MIC (Diutina rugosa) | Kd [1] | Kd [2] | Activity [3] | Activity [4] | Kd [5] | Kd [6] | Activity [7] | Structure (SMILES) |
| --- | --- | --- | --- | --- | --- | --- | --- | --- |
| 16 µg/mL (≈ 18.1 µM) | 340 µM | 5200 µM | 65% |  |  |  |  | CN[C@@H]1[C@H](O[C@@H]2OC[C@@H](O)[C@H](O)[C@H]2O)[C@@H](O)[C@H](O[C@H]2c3cc(C)c(C(=O)N[C@H](C)C(=O)N(C)OC)c(O)c3-c3c(cc4c(c3O)C(=O)c3cc(OC)cc(O)c3C4=O)[C@@H]2O)O[C@@H]1C |
| 16 µg/mL (≈ 18.4 µM) | 360 µM | 5300 µM | 65% |  |  |  |  | CN[C@@H]1[C@H](O[C@@H]2OC[C@@H](O)[C@H](O)[C@H]2O)[C@@H](O)[C@H](O[C@H]2c3cc(C)c(C(=O)N[C@H](C)C(=O)NOC)c(O)c3-c3c(cc4c(c3O)C(=O)c3cc(OC)cc(O)c3C4=O)[C@@H]2O)O[C@@H]1C |
| 16 µg/mL (≈ 18.4 µM) | 180 µM | 3500 µM | 65% |  |  |  |  | CN[C@@H]1[C@H](O[C@@H]2OC[C@@H](O)[C@H](O)[C@H]2O)[C@@H](O)[C@H](O[C@H]2c3cc(C)c(C(=O)N[C@H](C)C(=O)N(C)O)c(O)c3-c3c(cc4c(c3O)C(=O)c3cc(OC)cc(O)c3C4=O)[C@@H]2O)O[C@@H]1C |
| 4 µg/mL (≈ 4.76 µM) | 96 µM | 3800 µM |  |  |  |  | Active | CN[C@@H]1[C@H](O[C@@H]2OC[C@@H](O)[C@H](O)[C@H]2O)[C@@H](O)[C@H](O[C@H]2c3cc(C)c(C(=O)N[C@H](C)C(=O)O)c(O)c3-c3c(cc4c(c3O)C(=O)c3cc(OC)cc(O)c3C4=O)[C@@H]2O)O[C@@H]1C [PRADIMICIN A] |
